Data as given in patent US8613914B2, “Peptidomimetic sulfamide compounds and antiviral uses thereof” (Novartis AG, priority 2009, dated 2013).

Molecular target: HCV NS3-4A serine protease (full-length NS3-4A protein) (Hepatitis C virus genotype 1a (isolate 1) (HCV), UniProt P26664)
Test: HCV NS3-4A protease assay
Format: biochemical, HCV genotype 1a
Conditions: strain HCV-1, fluorogenic peptide substrate, read-out: Protease assay Ex. 12 IC50
Experimental: The inhibitory activity of certain compounds of Table A against HCV NS3-4A serine protease is determined in a homogenous assay using the full-length NS3-4A protein (genotype 1a, strain HCV-1) and a commercially available internally-quenched fluorogenic peptide substrate as described by Taliani, M., et al. 1996 Anal. Biochem. 240:60-67, which is incorporated by reference in its entirety.

HCV NS3-4A serine protease (full-length NS3-4A protein), sequence (P26664 1027-1657): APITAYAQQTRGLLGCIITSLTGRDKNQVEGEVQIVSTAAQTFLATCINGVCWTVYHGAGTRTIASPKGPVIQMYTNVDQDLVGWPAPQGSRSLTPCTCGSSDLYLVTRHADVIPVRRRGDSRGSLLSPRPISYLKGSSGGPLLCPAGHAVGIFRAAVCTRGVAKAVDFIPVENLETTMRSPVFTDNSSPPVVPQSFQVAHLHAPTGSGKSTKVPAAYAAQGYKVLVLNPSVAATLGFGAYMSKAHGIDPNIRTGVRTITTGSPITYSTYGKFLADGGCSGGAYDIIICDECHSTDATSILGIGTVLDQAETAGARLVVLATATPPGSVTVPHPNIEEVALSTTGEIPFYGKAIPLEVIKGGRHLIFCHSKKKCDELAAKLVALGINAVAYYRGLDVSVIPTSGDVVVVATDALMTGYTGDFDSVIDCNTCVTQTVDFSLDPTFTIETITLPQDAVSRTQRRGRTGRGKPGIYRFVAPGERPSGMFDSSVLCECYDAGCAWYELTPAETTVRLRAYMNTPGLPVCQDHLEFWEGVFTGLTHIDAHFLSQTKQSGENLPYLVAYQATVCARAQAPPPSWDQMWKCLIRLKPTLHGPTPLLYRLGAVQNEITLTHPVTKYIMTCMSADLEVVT
HCV NS3-4A serine protease (full-length NS3-4A protein), sequence (P26664 1658-1711 partner): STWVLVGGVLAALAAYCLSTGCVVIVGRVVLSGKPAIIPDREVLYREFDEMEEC

Row | SMILES | IC50 [nM]
1 | C=C[C@@H]1C[C@]1(NC(=O)[C@@H]1C[C@@]2(CN1C(=O)[C@@H](NC(=O)[C@@H](NC(=O)[C@H]1CCCN1C(C)C)C1CCCCC1)C(C)(C)C)C(C)(C)C21CCC1)C(=O)NS(=O)(=O)N1CCCC1 [Compound 16, (5R,8S)-7-[(2S)-2-{[(2S)-2-cyclohexyl-2-({[(2R)-1-isopropylpyrrolidin-2-yl]carbonyl}amino)acetyl]amino}-3,3-dimethylbutanoyl]-10,10-dimethyl-N-{(1R,2S)-1-[(pyrrolidin-1-ylsulfonyl)carbamoyl]-2-vinylcyclopropyl}-7-azadispiro[3.0.4.1]decane-8-carboxamide] | 2.3
2 | C=C[C@@H]1C[C@]1(NC(=O)[C@@H]1C[C@@]2(CN1C(=O)[C@@H](NC(=O)[C@@H](NC(=O)[C@H]1CCN1C(C)C)C1CCCCC1)C(C)(C)C)C(C)(C)C21CCC1)C(=O)NS(=O)(=O)N1CCCC1 [Compound 18, (5R,8S)-7-[(2S)-2-{[(2S)-2-cyclohexyl-2-({[(2R)-1-isopropylazetidin-2-yl]carbonyl}amino)acetyl]amino}-3,3-dimethylbutanoyl]-10,10-dimethyl-N-{(1R,2S)-1-[(pyrrolidin-1-ylsulfonyl)carbamoyl]-2-vinylcyclopropyl}-7-azadispiro[3.0.4.1]decane-8-carboxamide] | 10
3 | C=C[C@@H]1C[C@]1(NC(=O)[C@@H]1C[C@@]2(CN1C(=O)[C@@H](NC(=O)[C@@H](NC(=O)C1CN(C(C)C)C1)C1CCCCC1)C(C)(C)C)C(C)(C)C21CCC1)C(=O)NS(=O)(=O)N1CCCC1 [Compound 19, (5R,8S)-7-[(2S)-2-{[(2S)-2-cyclohexyl-2-{[(1-isopropylazetidin-3-yl)carbonyl]amino}acetyl]amino}-3,3-dimethylbutanoyl]-10,10-dimethyl-N-{(1R,2S)-1-[(pyrrolidin-1-ylsulfonyl)carbamoyl]-2-vinylcyclopropyl}-7-azadispiro[3.0.4.1]decane-8-carboxamide] | 55
4 | C=C[C@@H]1C[C@]1(NC(=O)[C@@H]1C[C@@]2(CN1C(=O)[C@@H](NC(=O)[C@@H](NC(=O)[C@@H]1CCCCN1CCF)C(C)(C)C)C(C)(C)C)C(C)(C)C21CCC1)C(=O)NS(=O)(=O)N1CCCC1 [Compound 20, (5R,8S)-7-[(2S)-2-{[(2S)-2-({[(2S)-1-(2-fluoroethyl)piperidin-2-yl]carbonyl}amino)-3,3-dimethylbutanoyl]amino}-3,3-dimethylbutanoyl]-10,10-dimethyl-N-{(1R,2S)-1-[(pyrrolidin-1-ylsulfonyl)carbamoyl]-2-vinylcyclopropyl}-7-azadispiro[3.0.4.1]decane-8-carboxamide] | 70
5 | C=C[C@@H]1C[C@]1(NC(=O)[C@@H]1C[C@@]2(CN1C(=O)[C@@H](NC(=O)[C@@H](NC(=O)[C@H]1CCCN1C(C)C)C(C)(C)C)C(C)(C)C)C(C)(C)C21CCC1)C(=O)NS(=O)(=O)N1CCCC1 [Compound 21, (5R,8S)-7-[(2S)-2-{[(2S)-2-({[(2R)-1-isopropylpyrrolidin-2-yl]carbonyl}amino)-3,3-dimethylbutanoyl]amino}-3,3-dimethylbutanoyl]-10,10-dimethyl-N-{(1R,2S)-1-[(pyrrolidin-1-ylsulfonyl)carbamoyl]-2-vinylcyclopropyl}-7-azadispiro[3.0.4.1]decane-8-carboxamide] | 35
6 | C=C[C@@H]1C[C@]1(NC(=O)[C@@H]1C[C@@]2(CN1C(=O)[C@@H](NC(=O)[C@@H](NC(=O)[C@H]1CCN1C(C)C)C(C)(C)C)C(C)(C)C)C(C)(C)C21CCC1)C(=O)NS(=O)(=O)N1CCCC1 [Compound 22, (5R,8S)-7-[(2S)-2-{[(2S)-2-({[(2R)-1-isopropylazetidin-2-yl]carbonyl}amino)-3,3-dimethylbutanoyl]amino}-3,3-dimethylbutanoyl]-10,10-dimethyl-N-{(1R,2S)-1-[(pyrrolidin-1-ylsulfonyl)carbamoyl]-2-vinylcyclopropyl}-7-azadispiro[3.0.4.1]decane-8-carboxamide] | 95
7 | C=C[C@@H]1C[C@]1(NC(=O)[C@@H]1C[C@@]2(CN1C(=O)[C@@H](NC(=O)[C@@H](NC(=O)C1CN(C(C)C)C1)C(C)(C)C)C(C)(C)C)C(C)(C)C21CCC1)C(=O)NS(=O)(=O)N1CCCC1 [Compound 23, (5R,8S)-7-[(2S)-2-{[(2S)-2-{[(1-isopropylazetidin-3-yl)carbonyl]amino}-3,3-dimethylbutanoyl]amino}-3,3-dimethylbutanoyl]-10,10-dimethyl-N-{(1R,2S)-1-[(pyrrolidin-1-ylsulfonyl)carbamoyl]-2-vinylcyclopropyl}-7-azadispiro[3.0.4.1]decane-8-carboxamide] | 400
8 | C=C[C@@H]1C[C@]1(NC(=O)[C@@H]1C[C@@]2(CN1C(=O)[C@@H](NC(=O)[C@@H](NC(=O)C(C)(C)N1CCCCC1)C(C)(C)C)C(C)(C)C)C(C)(C)C21CCC1)C(=O)NS(=O)(=O)N1CCCC1 [Compound 24, (5R,8S)-7-[(2S)-2-({(2S)-3,3-dimethyl-2-[(2-methyl-2-piperidin-1-ylpropanoyl)amino]butanoyl}amino)-3,3-dimethylbutanoyl]-10,10-dimethyl-N-{(1R,2S)-1-[(pyrrolidin-1-ylsulfonyl)carbamoyl]-2-vinylcyclopropyl}-7-azadispiro[3.0.4.1]decane-8-carboxamide] | 65
9 | C=C[C@@H]1C[C@]1(NC(=O)[C@@H]1C[C@@]2(CN1C(=O)[C@@H](NC(=O)[C@@H](NC(=O)C(C)(C)N1CCCCC1)C1CCCCC1)C(C)(C)C)C(C)(C)C21CCC1)C(=O)NS(=O)(=O)N1CCCC1 [Compound 25, (5R,8S)-7-[(2S)-2-({(2S)-2-cyclohexyl-2-[(2-methyl-2-piperidin-1-ylpropanoyl)amino]acetyl}amino)-3,3-dimethylbutanoyl]-10,10-dimethyl-N-{(1R,2S)-1-[(pyrrolidin-1-ylsulfonyl)carbamoyl]-2-vinylcyclopropyl}-7-azadispiro[3.0.4.1]decane-8-carboxamide] | 8
10 | C=C[C@@H]1C[C@]1(NC(=O)[C@@H]1C[C@@]2(CN1C(=O)[C@@H](NC(=O)[C@@H](NC(=O)[C@@H]1CCCCN1CCF)C1CCCCC1)C(C)(C)C)C(C)(C)C21CCC1)C(=O)NS(=O)(=O)N1CCCC1 [Compound 26, (5R,8S)-7-[(2S)-2-{[(2S)-2-cyclohexyl-2-({[(2S)-1-(2-fluoroethyl)piperidin-2-yl]carbonyl}amino)acetyl]amino}-3,3-dimethylbutanoyl]-10,10-dimethyl-N-{(1R,2S)-1-[(pyrrolidin-1-ylsulfonyl)carbamoyl]-2-vinylcyclopropyl}-7-azadispiro[3.0.4.1]decane-8-carboxamide] | 15
11 | C=C[C@@H]1C[C@]1(NC(=O)[C@@H]1C[C@@]2(CN1C(=O)[C@@H](NC(=O)[C@@H](NC(=O)[C@@H]1CCCN1C1CCCC1)C1CCCCC1)C(C)(C)C)C(C)(C)C21CCC1)C(=O)NS(=O)(=O)N1CCCC1 [Compound 28, (5R,8S)-7-[(2S)-2-{[(2S)-2-cyclohexyl-2-({[(2S)-1-cyclopentylpyrrolidin-2-yl]carbonyl}amino)acetyl]amino}-3,3-dimethylbutanoyl]-10,10-dimethyl-N-{(1R,2S)-1-[(pyrrolidin-1-ylsulfonyl)carbamoyl]-2-vinylcyclopropyl}-7-azadispiro[3.0.4.1]decane-8-carboxamide] | 2
12 | C=C[C@@H]1C[C@]1(NC(=O)[C@@H]1C[C@@]2(CN1C(=O)[C@@H](NC(=O)[C@@H](NC(=O)[C@@H]1Cc3[nH]cnc3CN1)C(C)(C)C)C(C)(C)C)C(C)(C)C21CCC1)C(=O)NS(=O)(=O)N1CCCC1 [Compound 29, (5R,8S)-7-[(2S)-2-{[(2S)-3,3-dimethyl-2-{[(6S)-4,5,6,7-tetrahydro-1H-imidazo[4,5-c]pyridin-6-ylcarbonyl]amino}butanoyl]amino}-3,3-dimethylbutanoyl]-10,10-dimethyl-N-{(1R,2S)-1-[(pyrrolidin-1-ylsulfonyl)carbamoyl]-2-vinylcyclopropyl}-7-azadispiro[3.0.4.1]decane-8-carboxamide] | 40
13 | CC[C@@H]1C[C@]1(NC(=O)[C@@H]1C[C@@]2(CN1C(=O)[C@@H](NC(=O)[C@@H](NC(=O)[C@@H]1CCCCN1C(C)C)C(C)(C)C)C(C)(C)C)C(C)(C)C21CCC1)C(=O)NS(=O)(=O)N1CCCC1 [Compound 30, (5R,8S)-N-{(1R,2R)-2-ethyl-1-[(pyrrolidin-1-ylsulfonyl)carbamoyl]cyclopropyl}-7-[(2S)-2-{[(2S)-2-({[(2S)-1-isopropylpiperidin-2-yl]carbonyl}amino)-3,3-dimethylbutanoyl]amino}-3,3-dimethylbutanoyl]-10,10-dimethyl-7-azadispiro[3.0.4.1]decane-8-carboxamide] | 62
14 | C=C[C@@H]1C[C@]1(NC(=O)[C@@H]1C[C@@]2(CN1C(=O)[C@@H](NC(=O)[C@@H](NC(=O)[C@@H]1CCCCN1C1CCCC1)C(C)(C)C)C(C)(C)C)C(C)(C)C21CCC1)C(=O)NS(=O)(=O)N1CCCC1 [Compound 31, (5R,8S)-7-[(2S)-2-{[(2S)-2-({[(2S)-1-cyclopentylpiperidin-2-yl]carbonyl}amino)-3,3-dimethylbutanoyl]amino}-3,3-dimethylbutanoyl]-10,10-dimethyl-N-{(1R,2S)-1-[(pyrrolidin-1-ylsulfonyl)carbamoyl]-2-vinylcyclopropyl}-7-azadispiro[3.0.4.1]decane-8-carboxamide] | 8
15 | C=C[C@@H]1C[C@]1(NC(=O)[C@@H]1C[C@@]2(CN1C(=O)[C@@H](NC(=O)[C@@H](NC(=O)[C@@H]1CCCCN1C1CCCC1)C1CCCCC1)C(C)(C)C)C(C)(C)C21CCC1)C(=O)NS(=O)(=O)N1CCCC1 [Compound 32, (5R,8S)-7-[(2S)-2-{[(2S)-2-cyclohexyl-2-({[(2S)-1-cyclopentylpiperidin-2-yl]carbonyl}amino)acetyl]amino}-3,3-dimethylbutanoyl]-10,10-dimethyl-N-{(1R,2S)-1-[(pyrrolidin-1-ylsulfonyl)carbamoyl]-2-vinylcyclopropyl}-7-azadispiro[3.0.4.1]decane-8-carboxamide] | 1
